Results reported in patent EP2958933B1, “CROSSLINKED PEPTIDE HYDROGELS” (Agency for Science, Technology and Research, priority 2013, dated 2018).
Peptide text beside a SMILES is read from it.

Assays:
[1] = Concentration dependence of self-assembly (aggregates, fibers); type: physicochemical
Text: An amphiphilic linear sequence of an amphiphilic peptide and/or peptoid disclosed herein, including an amphiphilic linear peptide and/or peptoid, is capable of providing a self assembling α-helical fiber in aqueous solution under physiological conditions. The peptides/peptoids (typically 3-7-mers) in the L- or D-form can self assemble into supramolecular helical fibers which are organized into mesh-like structures mimicking biological substances such as collagen. It has previously been observed in X-ray crystallography that peptides of a length of 3 to 6 amino acids with repetitive alanine containing sequences and an acetylated […] take a helical conformation (Hatakeyama, Y, et al, Angew. Chem. Int. Ed. (2009) 8695-8698). Using peptides with an amphiphilic sequence disclosed herein, Ac-LD6 (L), the formation of aggregates has for example been observed already at 0.1 mg/ml. […] With a formation of fibers occurring under physiological conditions at concentrations below 2 mM a peptide/peptoid disclosed herein is well suited as an injectable hydrogel material that can form a hydrogel under physiological conditions. Also disclosed herein is an amphiphilic linear peptide and/or peptoid as defined above for tissue engineering as well as to a tissue engineering method that involves applying, including injecting a respective amphiphilic linear peptide and/or peptoid.

[2] = Oscillation rheology of casted crosslinkable gels (frequency and amplitude sweep); type: physicochemical; details: for gel stiffness on LK6-doping: final concentration 12 mM, cast-and-soak 0.06% H2O2 two hours; for stiffness after water soak: without oxidation
Experimental: Peptide was dissolved in 200 µL of water +/- H2O2 and filled into custom-made hollow ring casts (diameter ∼1 cm). The ring ends were sealed with parafilm to minimise evaporation and the cast was kept at 25°C for 22 hours before further manipulations.
(§1) Rheology: The rheological properties of casted gels were measured with an ARES-G2 (TA Instruments, USA) using the oscillation method. Frequency-sweep studies were performed with ω=0-100 rad/s at strain, γ=0.1%. The gel stiffness was represented by plotting G' against ω. Amplitude-sweep studies were performed beforehand at 1 Hz with γ=0-100%. The LVE limit of the gel was defined as the value of γ when G' first dropped below 90% of the average initial value.
as §1, with “The” for “Rheology: The”

[3] = Water soak of casted gels (resistance to degradation, shape retention); type: physicochemical; details: non-oxidised gels, 24 hours of water soak
[4] = Determination of a suitable gelation concentration; type: physicochemical; details: for working concentration at which gels are formed: gels with sufficient mechanical integrity to withstand handling / gel formation
Text: Reference is now made to the figures, wherein: • Figures 1A to 1M represent a sorted list of some exemplary peptides capable of forming hydrogels. These peptides are examples in which the entire peptide consists of a single linear amphiphilic sequence. Peptides which are forming hydrogels are named with a short code, but their individual sequence is disclosed. The peptides of these examples consist of a sequence of natural amino acids containing 3 to 7 amino acids. The N-terminus is acetylated which removes the charge that would otherwise restrain the amphiphilic character of the peptides. • Figure 2 depicts gelation pictures for peptide based hydrogels at lowest concentrations. • Figure 3 depicts gelation pictures for Ac-AS-6 (Ac-AIVAGS) (L) at concentrations of 5 mg/ml, 10 mg/ml, 15 mg/ml. • Figure 4 depicts a hypothesis of self-assembly from peptide monomers to supramolecular network of condensed fibers. (A) Assembly is believed to initiate with antiparallel pairing of two peptide monomers by changing to α-helical conformations. Subsequently, peptide pairs assemble to fibers and nanostructures. Condensation of peptide fibers to fiber aggregates results in hydrogel formation. • Figure 5 depicts environmental scanning electron microscopy (ESEM) images of hydrogels of Ac-LD6 (Ac-LIVAGD) (L) (10 mg/ml), where Fig. 5A, Fig. 5B and Fig. 5C are images obtained at magnification of 260X, 1000X, 2000X, 2400X, 4000X at a temperature of 4 °C with HV at 10KV. […] 8A), and 450 X (fig. […] (a) A honeycomb porous structure is observed following lyophilization of 20 mg/mL Ac-AD6 (Ac-AIVAGD) (D) hydrogel. The pores are bounded by membranes of condensed fibers as shown in close-up views of 15 mg/mL (b) and 20 mg/mL (c) Ac-ID3 (Ac-IVD) (L) hydrogels. […] Heating the samples to facilitate gelation increased the β type aggregation. […] (e) Far-UV CD spectra of AcID3 (Ac-IVD) at different concentrations. […] (a, b) The high mechanical strengths of different peptide hydrogels at 20 mg/mL concentration was determined by measuring storage moduli (G') as a function of angular frequency under 0.1% strain, at 25°C and 50°C respectively. […] (c) Mechanical strength is a function of concentration, as determined from oscillatory frequency sweep studies using Ac-LD6 (Ac-LIVAGD) (L) under 0.1% strain at 25°C. […] LK6 gels were therefore casted at different concentrations and their stiffness was measured (average ± s.d. of triplicates). As expected, G' values increased with peptide concentration and it was determined that a working concentration of 12 mM afforded gels with sufficient mechanical integrity to withstand handling. […]

skins of guinea pigs = experiment: Direct contact Kligman maximization test (GLP, ISO 10993-10); type: in vivo
V79 = experiment: Direct contact V79 colony assay (GLP); type: cell-based
HepG2 cells [5] = experiment: 3D cell culture on gels, calcein live-cell staining; type: cell-based; details: purified gels conjugated with different concentrations of RGD, after four days
Experimental: LK6C +/- CRGD gels were casted directly into 8-chamber Lab-Tek® wells (Nunc, NY, USA) and purified as reported in the SI. 0.5 mL of cell suspension in regular completed DMEM (Invitrogen, Singapore) was either seeded onto the gel or directly into the well (2D control) and incubated for four days. 0.5 µL of calcein-AM (Invitrogen) was then added to the media to identify live cells and images were captured using a confocal microscope (LSM5 DUO, Carl Zeiss, Germany). Beforehand, calcein-AM was verified to stain only live cells as ethanol- and H2O2-treated cells excluded the dye. All images, except for the 2D controls, were presented as mergers of several z-stacks. To further verify the 3D distribution of cells, the gel was embedded vertically in Jung Tissue Freezing Medium (Leica Instruments GmbH, Germany) and 20 µm cross-sectional slices were obtained with a cryostat (CM3050 S, Leica). Sections were mounted with coverslips and imaged as above.
To test for biocompatibility, HepG2 cells were either seeded directly into wells (2D control) or onto purified LK6C gels conjugated with different concentrations of RGD. […] This was repeated with primary rabbit fibroblasts (Figure 35), 3T3 murine fibroblasts (Figure 38) and NIH-3T3 murine fibroblasts (data not shown), confirming the biocompatibility of the gels. With regular media changes, cells remained viable for at least 3 weeks (Figure 38). […]

[6] = tested on: Fibroblasts isolated from the cornea/sclera of New Zealand White rabbits; experiment: 3D primary cell culture on gels, calcein live-cell staining; type: cell-based; details: purified gels +/- various concentrations of CRGD, four days
Text: (§2) Reference is now made to the figures, wherein: • Figures 1A to 1M represent a sorted list of some exemplary peptides capable of forming hydrogels. These peptides are examples in which the entire peptide consists of a single linear amphiphilic sequence. Peptides which are forming hydrogels are named with a short code, but their individual sequence is disclosed. The peptides of these examples consist of a sequence of natural amino acids containing 3 to 7 amino acids. […] (a, b) The high mechanical strengths of different peptide hydrogels at 20 mg/mL concentration was determined by measuring storage moduli (G') as a function of angular frequency under 0.1% strain, at 25°C and 50°C respectively. […] (c) Mechanical strength is a function of concentration, as determined from oscillatory frequency sweep studies using Ac-LD6 (Ac-LIVAGD) (L) under 0.1% strain at 25°C. […] LK6 gels were therefore casted at different concentrations and their stiffness was measured (average ± s.d. of triplicates). As expected, G' values increased with peptide concentration and it was determined that a working concentration of 12 mM afforded gels with sufficient mechanical integrity to withstand handling. […]

HepG2 cells [7] = experiment: Quantification of cell-spread area (ImageJ); type: cell-based; details: gel culture in the presence or absence of RGD
Text: Confocal images after calcein staining were processed using ImageJ (NIH, USA) to obtain the average cell-spread area under various culture conditions. For cells in 3D gel culture, images used for quantification were mergers of several z-stacks to capture the maximum cell-spread area. In all cases, at least three independent experiments with at least two locations selected from each culture were used for averaging.

[8] = tested on: Fibroblasts isolated from the cornea/sclera of New Zealand White rabbits; experiment: Quantification of cell-spread area (ImageJ); type: cell-based; details: various gel cultures, ANOVA p<0.05
Text: as §2

Compound	concentration at which formation of aggregates is observed [1]	concentration at which peptide monomers align to form fibrous structures [1]	gel stiffness on LK6-doping [2]	gel degradation after water soak [3]	material needed for gelation [4]	working concentration at which gels are formed [4]	shape and stiffness after water soak ([2]; 12 mM gel, 2 or 24 hours cast-and-soak or 22 hours in situ oxidation with 0.06% H2O2, up to four days of water soak)	stiffness after water soak ([2]; 12 mM gel, 24 hours of water soak)	stiffness after water soak ([2]; 12 mM gel, two hours of water soak)	stiffness (G') following oxidation ([2]; compared to non-oxidised gels, different oxidation regimes)	linear viscoelastic (LVE) limit (elasticity), increase following oxidation ([2]; oxidised vs non-oxidised gels, cast-and-soak 2-24 hours 0.06% H2O2 or in situ 24 hours 0.03-0.1% H2O2)	sensitization (skins of guinea pigs)	toxicity (V79)	cell viability (calcein staining) (HepG2 cells [5])	cell viability (calcein staining) [6]	cell spreading vs regular 2D culture (HepG2 cells [7])	cell-spread area vs 2D culture [8]
CC[C@H](C)[C@H](NC(=O)[C@H](CC(C)C)NC(C)=O)C(=O)N[C@H](C(=O)N[C@@H](C)C(=O)NCC(=O)N[C@@H](CC(=O)O)C(=O)O)C(C)C [Ac-LD6 (L), Ac-LIVAGD-COOH] (Ac-LIVAGD-OH)	100 µg/mL	1000 µg/mL															
LIVAGK [LK6]			relatively stiff	completely degraded	25 mg/mL	12 mM											
LIVAGKC [LK6C, cross-linkable peptide, LK6 modified with a cysteine residue at the C-terminus; forms hydrogels]			relatively stiff		10 mg/mL	12 mM	maintained their shapes and in fact, became stiffer	broke down and lost their stiffness	could maintain their stiffness	either maintained or increased	2.4-3.8 fold	no sensitization	no significant toxicity	viable	viable fibroblasts were seen in all cases	insignificant effects (p>0.05)	spreaded more in 2D culture compared to those in the various gel cultures
